Measurements published in patent US8741892B2, “Compounds” (Boehringer Ingelheim International GmbH, priority 2011, dated 2014).

Target: T1, human recombinant mGluR5 (Homo sapiens, UniProt P41594)
T1 construct: expressed in transfected cells; host or cells: HEK 293
Assay: positive modulation of mGluR5, calcium based FLIPR assay
Details: HEK 293 cell line expressing human recombinant mGluR5; EC50 of the modulation from peak Ca fluorescence signal after glutamate at approx. 5% basal stimulation
Protocol: The positive modulation of mGluR5 is measured in a HEK 293 cell line expressing human recombinant mGluR5 and is detected with calcium based FLIPR assay. The cells are cultured with DMEM supplemented with 10% FCS, 2 μg/mL tetracycline, 100 μg/mL hygromycin and 500 μg/mL geneticin. The cell culture media is exchanged for tetracycline-free cell culture media 3-7 days before the assay. One day before the assay the cell culture medium is exchanged to DMEM without glutamine and phenol red and supplemented with 10% FCS, 100 μg/mL hygromycin and 500 μg/mL geneticin. On the assay day, the medium of the subconfluent cultures is removed and the cells are detached by addition of 2.5 ml EDTA (0.02%) per 175 cm2 culture flask for 1 minute. The cells are resuspend in Ringer solution (140 mM NaCl, 5 mM KCl, 2.5 mM CaCl2, 1.5 mM MgCl2, 5 mM Glucose, 10 mM Hepes; adjusted to pH 7.4 with NaOH), pooled and Ringer solution added to adjust the volume to 50 mL. The cell suspension is centrifuged for […] at 1500 U/min (425 g). The supernatant is removed and the cells washed a second time with 50 ml fresh Ringer solution and centrifuged again as before. The supernatant is again removed and the pellet resuspended in Ringer solution to 1,000,000 cells/ml (1×10^6 cells/mL). The cells are plated onto BD BioCoat Poly-D-Lysine 384 well plates (20.000 cells/well; 20 μl/well). The lid covered plates are then incubated until use at 37° C./10% CO2. For dye loading, 20 μl of Calcium-4 assay kit solution (prepared according to the manufacturer's description in Ringer solution) are added to the cells and the plates are incubated for […] 37° C. and then […] at room temperature.
Controls, Compound Dilution and Assay Execution:
Each assay plate contained wells with “high” and “low” controls:
Low controls 1% DMSO/ringer solution+basal glutamate activation (defined as 100% CTL).
High controls 10 μM CDPPB+basal glutamate activation (defined as 200% CTL).
Test compounds are dissolved and diluted in DMSO to 100-fold the desired concentrations. In a second step, the compounds are diluted in Ringer solution such that the compounds are 4-fold more concentrated than the desired final assay concentration. The final DMSO concentration was 1%.
20 μl of each compound solution are then transferred to the assay plate and the Ca2+ kinetic is measured to determine any intrinsic compound activity. After 5 mM incubation in the FLIPR device, the second stimulation with 20 μl of glutamate in Ringer solution (glutamate concentration adjusted to approximately 5% basal stimulation of the maximal possible glutamate effect) is added and the kinetic Ca2+ response of the wells was measured for the modulation effect.
The peak height of the Ca release related fluorescence signal (9-66) is used for the EC50. The EC50 of the modulation is calculated over a nonlinear regression with GraphPad Prism (Table 1).

T1 sequence (P41594 21-1212): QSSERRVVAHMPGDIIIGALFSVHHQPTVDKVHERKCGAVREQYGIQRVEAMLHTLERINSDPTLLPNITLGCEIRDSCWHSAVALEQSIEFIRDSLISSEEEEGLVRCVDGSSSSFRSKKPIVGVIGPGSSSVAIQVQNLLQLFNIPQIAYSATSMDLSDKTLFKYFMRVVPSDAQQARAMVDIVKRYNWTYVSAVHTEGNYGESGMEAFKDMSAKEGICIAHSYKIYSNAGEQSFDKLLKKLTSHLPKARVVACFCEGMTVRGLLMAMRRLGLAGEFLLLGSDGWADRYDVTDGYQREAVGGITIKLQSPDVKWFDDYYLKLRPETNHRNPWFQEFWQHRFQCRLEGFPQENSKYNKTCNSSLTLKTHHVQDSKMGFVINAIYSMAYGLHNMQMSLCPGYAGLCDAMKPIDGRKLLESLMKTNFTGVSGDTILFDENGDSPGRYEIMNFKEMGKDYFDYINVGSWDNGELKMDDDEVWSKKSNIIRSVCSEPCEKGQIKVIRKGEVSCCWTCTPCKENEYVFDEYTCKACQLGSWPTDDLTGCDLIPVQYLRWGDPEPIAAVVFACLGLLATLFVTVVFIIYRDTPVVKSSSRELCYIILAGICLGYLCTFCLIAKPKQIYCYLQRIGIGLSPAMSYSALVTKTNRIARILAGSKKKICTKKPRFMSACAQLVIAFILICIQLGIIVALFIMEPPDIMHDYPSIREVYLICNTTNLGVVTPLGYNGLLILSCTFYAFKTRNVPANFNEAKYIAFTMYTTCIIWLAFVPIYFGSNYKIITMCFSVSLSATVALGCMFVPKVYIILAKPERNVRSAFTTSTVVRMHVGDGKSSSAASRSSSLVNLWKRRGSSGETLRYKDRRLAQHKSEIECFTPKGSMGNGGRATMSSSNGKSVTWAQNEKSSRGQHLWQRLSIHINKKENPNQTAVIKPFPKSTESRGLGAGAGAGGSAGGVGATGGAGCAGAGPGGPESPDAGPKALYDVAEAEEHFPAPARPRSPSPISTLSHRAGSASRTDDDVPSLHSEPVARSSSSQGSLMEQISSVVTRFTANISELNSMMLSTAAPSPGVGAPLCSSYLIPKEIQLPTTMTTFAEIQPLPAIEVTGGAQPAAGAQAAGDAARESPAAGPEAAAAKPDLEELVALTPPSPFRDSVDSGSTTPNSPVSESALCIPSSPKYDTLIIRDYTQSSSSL

Row | SMILES | EC50 [nM]
1 | CCc1cc(-c2cc(C)c(F)c(C)c2)nn1CC(=O)N1CCc2nc(N)sc2CC1 [Example 7.02.133] | 276
2 | CCc1cc(-c2cccc(Cl)c2)nn1CC(=O)N1CC=C(c2ncc(C)o2)CC1 [Example 7.02.107] | 39
3 | Cc1nc2c(s1)CCN(C(=O)Cn1nc(-c3cc(C)c(C)cn3)cc1-c1ccccc1)CC2 [Example 7.02.126] | 68
4 | Cc1nc2c(s1)CN(C(=O)Cn1nc(-c3ccc(C)c(C)c3)cc1-c1ccccc1)C2 [Example 7.02.090] | 41
5 | COc1cccc(N2CCN(C(=O)Cn3nc(-c4ccccc4)cc3-c3ccccc3)CC2=O)c1 [Example 7.01.020] | 258
6 | CC1CN(C(=O)Cn2nc(-c3ccccc3)cc2-c2ccccc2)CC(C)N1C(=O)OCc1ccccc1 (stereo not drawn) [Example 7.01.025] | 1870
7 | Cc1cnc(C2=CCN(C(=O)Cn3nc(-c4ccc(F)c(C)c4)cc3-c3ccccc3)CC2)o1 [Example 7.02.100] | 4
8 | CCc1cc(-c2ccc(F)c(C)c2)nn1CC(=O)N1CCc2nc(NC(C)=O)sc2CC1 [Example 7.01.069] | 380
9 | COc1cnc(C2=CCN(C(=O)Cn3nc(-c4ccc(F)c(C)c4)cc3-c3ccccc3)CC2)nc1 [Example 7.02.101] | 14
10 | Cc1nc2c(s1)CCN(C(=O)Cn1nc(-c3ccc(F)c(C)c3)cc1CC(C)C)CC2 [Example 7.02.119] | 12
11 | CCc1cc(-c2ccc(F)c(C)c2)nn1CC(=O)N1CCc2cc(-c3ccccc3)nnc2CC1 [Example 7.01.066] | 153
12 | CCc1cc(-c2cccc(Cl)c2)nn1CC(=O)N1CCc2nc(C)sc2CC1 [Example 7.02.109] | 61
13 | CCc1cc(-c2ccc(F)c(C)c2)nn1CC(=O)N1CC=C(c2ncc(C)o2)CC1 [Example 7.02.205] | 18
14 | Cc1cc(-c2cc(-c3ccccc3)n(CC(=O)N3CCc4nc(N)sc4CC3)n2)ccc1F [Example 7.02.023] | 12
15 | O=C(Cn1nc(-c2ccccc2)cc1-c1ccccc1)N1CCN(c2ccc(F)cc2)C(=O)C1 [Example 7.01.019] | 1660
16 | COc1cc2c(cc1OC)CN(C(=O)Cn1nc(-c3ccccc3)cc1-c1ccccc1)CC2 [Example 7.02.006] | 1950
17 | CCc1cc(-c2ccc(C)c(C)c2)nn1CC(=O)N1CC=C(c2ncc(OC)cn2)CC1 [Example 7.02.076] | 293
18 | COc1ccc2c(n1)CCN(C(=O)Cn1nc(-c3ccc(F)c(C)c3)cc1-c1ccccc1)CC2 [Example 7.01.091] | 37
19 | COc1ccc(-c2cc(-c3ccccc3)n(CC(=O)N3CCN(c4noc(C)n4)CC3)n2)cc1C [Example 7.02.232] | 104
20 | Cc1cnc(N2CCN(C(=O)Cn3nc(-c4ccc(OC(F)F)cc4)cc3-c3ccccc3)CC2)o1 [Example 7.02.226] | 11

Row | SMILES | EC50 [nM]
21 | CCc1cc(-c2cccc(C#N)c2)nn1CC(=O)N1CC=C(c2ncc(C)o2)CC1 [Example 7.02.182] | 65
22 | COCc1cc(-c2ccc(F)c(C)c2)nn1CC(=O)N1Cc2nc(C)sc2C1 [Example 7.01.058] | 279
23 | COc1cnc(C2CCN(C(=O)Cn3nc(-c4ccc(C)c(C)c4)cc3-c3ccccc3)CC2)nc1 [Example 7.02.089] | 59
24 | CCc1cc(-c2cccc(C)c2)nn1CC(=O)N1CC=C(c2ncc(OC)cn2)CC1 [Example 7.02.082] | 291
25 | Cc1cc(-c2cc(-c3ccccc3)n(CC(=O)N3CCc4cn[nH]c4CC3)n2)ccc1F [Example 7.01.052] | 31
26 | O=C(Cn1nc(-c2ccccc2)cc1-c1ccccc1)N1Cc2nc(-c3ccccc3)sc2C1 [Example 7.01.032] | 710
27 | Cc1nc2c(o1)CN(C(=O)Cn1nc(-c3ccc(F)c(C)c3)cc1C)CC2 [Example 7.01.061] | 163
28 | CCCc1cc(-c2ccc(F)c(C)n2)nn1CC(=O)N1Cc2nc(C)oc2C1 [Example 7.02.249] | 184
29 | Cc1nc(N2CCN(C(=O)Cn3nc(-c4ccc(F)c(C)c4)cc3-c3ccccc3)CC2)no1 [Example 7.02.195] | 2
30 | COc1ccc2c(c1)CCN(C(=O)Cn1nc(-c3ccccc3)cc1-c1ccccc1)CC2 [Example 7.01.008] | 1180
31 | CCCc1cc(-c2ccc(F)c(C)c2)nn1CC(=O)N1CCC(c2nnc(C)o2)CC1 [Example 7.02.210] | 145
32 | Cc1nc2c(s1)CCN(C(=O)Cn1nc(-c3ccc(F)cc3)cc1C(C)C)CC2 [Example 7.02.072] | 251
33 | COc1ccc2c(c1)CN(C(=O)Cn1nc(-c3ccccc3)cc1-c1ccccc1)C2 [Example 7.01.004] | 390
34 | COc1ccc(-c2cc(-c3ccccc3)n(CC(=O)N3Cc4nc(C)oc4C3)n2)cc1C [Example 7.02.246] | 62
35 | Cc1cc(-c2cc(-c3ccccc3)n(CC(=O)N3CCc4ccccc4CC3)n2)ccc1F [Example 7.01.090] | 240
36 | Cc1nc2c(s1)CN(C(=O)Cn1nc(-c3cccc(Cl)c3)cc1-c1ccccc1)C2 [Example 7.02.143] | 48
37 | Cc1cc(C2=CCN(C(=O)Cn3nc(-c4ccc(F)c(C)c4)cc3-c3ccccc3)CC2)ncn1 [Example 7.02.096] | 10
38 | CNc1nc2c(s1)CCN(C(=O)Cn1nc(-c3ccc(F)c(C)c3)cc1C1CC1)CC2 [Example 7.02.037] | 194
39 | Cc1cccc(-c2cc(-c3ccccc3)n(CC(=O)N3CCc4nc(C)sc4CC3)n2)c1 [Example 7.02.198] | 6
40 | COCCCc1cc(-c2ccc(F)c(C)c2)nn1CC(=O)N1Cc2nc(C)sc2C1 [Example 7.02.105] | 242

Row | SMILES | EC50 [nM]
41 | CCc1cc(-c2ccc(F)c(C)c2)nn1CC(=O)N1Cc2nc(C)oc2C1 [Example 7.02.213] | 26
42 | Cc1nc2c(s1)CCN(C(=O)Cn1nc(-c3ccc(C)c(C)n3)cc1-c1ccccc1)CC2 [Example 7.02.122] | 38
43 | Cc1nnc(C2=CCN(C(=O)Cn3nc(-c4ccc(F)c(C)c4)cc3-c3ccccc3)CC2)o1 [Example 7.02.115] | 8
44 | Cc1ccc(NC2CCN(C(=O)Cn3nc(-c4ccccc4)cc3-c3ccccc3)CC2)c(C)c1 [Example 7.01.051] | 1440
45 | Cc1nc2c(s1)CN(C(=O)Cn1nc(-c3ccc(F)c(C)c3)cc1-c1ccccc1)CC2 [Example 7.01.089] | 22
46 | Cc1nc(N2CCN(C(=O)Cn3nc(-c4cc(C)c(F)cn4)cc3-c3ccccc3)CC2)no1 [Example 7.02.178] | 69
47 | Cc1nc2c(o1)CN(C(=O)Cn1nc(-c3ccc(C(F)F)cc3)cc1-c1ccccc1)C2 [Example 7.02.257] | 16
48 | Cc1nc2c(s1)CCN(C(=O)Cn1nc(-c3cc(C)c(F)cn3)cc1-c1ccccc1)CC2 [Example 7.02.175] | 59
49 | Cc1nc2c(s1)CN(C(=O)Cn1nc(-c3ccc(F)c(C)c3)cc1C)C2 [Example 7.01.062] | 242
50 | Cc1cccc(-c2cc(-c3ccccc3)n(CC(=O)N3Cc4nc(C)sc4C3)n2)c1 [Example 7.02.200] | 24
51 | N#Cc1ccc(Cl)cc1NC1CCN(C(=O)Cn2nc(-c3ccccc3)cc2-c2ccccc2)CC1 [Example 7.01.053] | 914
52 | CCc1cc(-c2ccc(F)c(C)c2)nn1CC(=O)N1CCc2nc(C)oc2CC1 [Example 7.02.066] | 24
53 | CCc1cc(-c2ccc(F)c(C)c2)nn1CC(=O)N1CCc2oc(C)nc2C1 [Example 7.01.075] | 87
54 | Cc1cc(-c2cc(-c3ccccc3)n(CC(=O)N3CCC(C)(c4nnc(C(C)C)o4)CC3)n2)ccc1F [Example 7.02.018] | 693
55 | COCc1cc(-c2ccc(F)c(C)c2)nn1CC(=O)N1CCc2nc(C)sc2CC1 [Example 7.01.055] | 53
56 | Cc1ccc(-c2cc(-c3ccccc3)n(CC(=O)N3CCc4nc(N)sc4CC3)n2)nc1C [Example 7.02.123] | 71
57 | CCc1nnc(N2CCN(C(=O)Cn3nc(-c4ccc(F)c(C)c4)cc3-c3ccccc3)CC2)o1 [Example 7.02.160] | 23
58 | Cc1nnc(N2CCN(C(=O)Cn3nc(-c4ccc(F)c(C)c4)cc3C)CC2)o1 [Example 7.01.063] | 334
59 | Nc1nc2c(s1)CCN(C(=O)Cn1nc(-c3cccc(Cl)c3)cc1-c1ccccc1)CC2 [Example 7.02.138] | 44
60 | O=C(Cn1nc(-c2ccccc2)cc1-c1ccccc1)N1CCc2ncnc(-c3ccccc3)c2CC1 [Example 7.01.026] | 503
